Active and inactive are the calls of the source. The rule behind the calls is not given here.
System: CCRIS mutagenicity, Ames/micronucleus/aberration tests
Assay: CCRIS mutagenicity studies
[1] = Test System: AMES SALMONELLA TYPHIMURIUM, Strain/Indicator: TA98, Metabolic Activation: NONE, Method: STANDARD PLATE
[2] = Test System: AMES SALMONELLA TYPHIMURIUM, Strain/Indicator: TA100, Metabolic Activation: NONE, Method: STANDARD PLATE
[3] = Test System: AMES SALMONELLA TYPHIMURIUM, Strain/Indicator: TA100, Metabolic Activation: NONE, Method: PREINCUBATION
[4] = Test System: AMES SALMONELLA TYPHIMURIUM, Strain/Indicator: TA1535, Metabolic Activation: NONE, Method: STANDARD PLATE

Q: O=C1NC(=O)C(c2ccccc2)(c2ccc(O)cc2)N1 (stereo not given) was tested. Which mutagenic call (Test System: AMES SALMONELLA TYPHIMURIUM, Strain/Indicator: TA97, Metabolic Activation: NONE, Method: STANDARD PLATE) did it give?
A: Its mutagenic call is “inactive; negative”.

Q: And the mutagenic call (Test System: AMES SALMONELLA TYPHIMURIUM, Strain/Indicator: TA97, Metabolic Activation: RAT, LIVER, S-9, 3-METHYLCHOLANTHRENE, Method: PREINCUBATION (10, 20 OR 30 MIN))?
A: The mutagenic call was “inactive; negative”.

Q: And the mutagenic call (Test System: AMES SALMONELLA TYPHIMURIUM, Strain/Indicator: TA97, Metabolic Activation: RAT, LIVER, S-9, 3-METHYLCHOLANTHRENE, Method: STANDARD PLATE)?
A: Its mutagenic call is “inactive; negative”.

Q: And the mutagenic call (Test System: AMES SALMONELLA TYPHIMURIUM, Strain/Indicator: TA97, Metabolic Activation: RAT, LIVER, S-9, AROCLOR 1254, Method: PREINCUBATION (10, 20 OR 30 MIN))?
A: Its mutagenic call is “inactive; negative”.

Q: What about the mutagenic call (Test System: AMES SALMONELLA TYPHIMURIUM, Strain/Indicator: TA97, Metabolic Activation: RAT, LIVER, S-9, AROCLOR 1254, Method: STANDARD PLATE) of the same molecule?
A: Its mutagenic call is “inactive; negative”.

Q: And the mutagenic call (Test System: AMES SALMONELLA TYPHIMURIUM, Strain/Indicator: TA97, Metabolic Activation: RAT, LIVER, S-9, PHENOBARBITONE, Method: PREINCUBATION (10, 20 OR 30 MIN))?
A: Its mutagenic call is “inactive; negative”.

Q: And the mutagenic call (Test System: AMES SALMONELLA TYPHIMURIUM, Strain/Indicator: TA97, Metabolic Activation: RAT, LIVER, S-9, PHENOBARBITONE, Method: STANDARD PLATE)?
A: The mutagenic call was “inactive; negative”.

Q: What about the mutagenic call [1] of the same molecule?
A: The mutagenic call was “inactive; negative”.

Q: And the mutagenic call (Test System: AMES SALMONELLA TYPHIMURIUM, Strain/Indicator: TA98, Metabolic Activation: RAT, LIVER, S-9, 3-METHYLCHOLANTHRENE, Method: STANDARD PLATE)?
A: Its mutagenic call is “inactive; negative”.

Q: What about the mutagenic call (Test System: AMES SALMONELLA TYPHIMURIUM, Strain/Indicator: TA98, Metabolic Activation: RAT, LIVER, S-9, AROCLOR 1254, Method: STANDARD PLATE) of the same molecule?
A: Its mutagenic call is “inactive; negative”.

Q: And the mutagenic call (Test System: AMES SALMONELLA TYPHIMURIUM, Strain/Indicator: TA98, Metabolic Activation: RAT, LIVER, S-9, PHENOBARBITONE, Method: STANDARD PLATE)?
A: The mutagenic call was “inactive; negative”.

Q: And the mutagenic call [2]?
A: Its mutagenic call is “inactive; negative”.

Q: And the mutagenic call (Test System: AMES SALMONELLA TYPHIMURIUM, Strain/Indicator: TA100, Metabolic Activation: RAT, LIVER, S-9, 3-METHYLCHOLANTHRENE, Method: STANDARD PLATE)?
A: Its mutagenic call is “inactive; negative”.

Q: What about the mutagenic call (Test System: AMES SALMONELLA TYPHIMURIUM, Strain/Indicator: TA100, Metabolic Activation: RAT, LIVER, S-9, AROCLOR 1254, Method: STANDARD PLATE) of the same molecule?
A: The mutagenic call was “inactive; negative”.

Q: What about the mutagenic call (Test System: AMES SALMONELLA TYPHIMURIUM, Strain/Indicator: TA100, Metabolic Activation: RAT, LIVER, S-9, PHENOBARBITONE, Method: STANDARD PLATE) of the same molecule?
A: The mutagenic call was “inactive; negative”.

Q: What about the mutagenic call (Test System: AMES SALMONELLA TYPHIMURIUM, Strain/Indicator: TA1530, Metabolic Activation: NONE, Method: STANDARD PLATE) of the same molecule?
A: Its mutagenic call is “inactive; negative”.

Q: And the mutagenic call (Test System: AMES SALMONELLA TYPHIMURIUM, Strain/Indicator: TA1530, Metabolic Activation: RAT, LIVER, S-9, 3-METHYLCHOLANTHRENE, Method: STANDARD PLATE)?
A: The mutagenic call was “inactive; negative”.

Q: And the mutagenic call (Test System: AMES SALMONELLA TYPHIMURIUM, Strain/Indicator: TA1530, Metabolic Activation: RAT, LIVER, S-9, AROCLOR 1254, Method: STANDARD PLATE)?
A: Its mutagenic call is “inactive; negative”.

Q: What about the mutagenic call (Test System: AMES SALMONELLA TYPHIMURIUM, Strain/Indicator: TA1530, Metabolic Activation: RAT, LIVER, S-9, PHENOBARBITONE, Method: STANDARD PLATE) of the same molecule?
A: Its mutagenic call is “inactive; negative”.

Q: And the mutagenic call (Test System: AMES SALMONELLA TYPHIMURIUM, Strain/Indicator: TA1537, Metabolic Activation: NONE, Method: STANDARD PLATE)?
A: Its mutagenic call is “inactive; negative”.

Q: What about the mutagenic call (Test System: AMES SALMONELLA TYPHIMURIUM, Strain/Indicator: TA1537, Metabolic Activation: RAT, LIVER, S-9, 3-METHYLCHOLANTHRENE, Method: STANDARD PLATE) of the same molecule?
A: The mutagenic call was “inactive; negative”.

Q: And the mutagenic call (Test System: AMES SALMONELLA TYPHIMURIUM, Strain/Indicator: TA1537, Metabolic Activation: RAT, LIVER, S-9, AROCLOR 1254, Method: STANDARD PLATE)?
A: The mutagenic call was “inactive; negative”.

Q: And the mutagenic call (Test System: AMES SALMONELLA TYPHIMURIUM, Strain/Indicator: TA1537, Metabolic Activation: RAT, LIVER, S-9, PHENOBARBITONE, Method: STANDARD PLATE)?
A: Its mutagenic call is “inactive; negative”.

Q: What about the mutagenic call (Test System: AMES SALMONELLA TYPHIMURIUM, Strain/Indicator: TA1538, Metabolic Activation: NONE, Method: STANDARD PLATE) of the same molecule?
A: Its mutagenic call is “inactive; negative”.

Q: What about the mutagenic call (Test System: AMES SALMONELLA TYPHIMURIUM, Strain/Indicator: TA1538, Metabolic Activation: RAT, LIVER, S-9, 3-METHYLCHOLANTHRENE, Method: STANDARD PLATE) of the same molecule?
A: Its mutagenic call is “inactive; negative”.

Q: And the mutagenic call (Test System: AMES SALMONELLA TYPHIMURIUM, Strain/Indicator: TA1538, Metabolic Activation: RAT, LIVER, S-9, AROCLOR 1254, Method: STANDARD PLATE)?
A: The mutagenic call was “inactive; negative”.

Q: What about the mutagenic call (Test System: AMES SALMONELLA TYPHIMURIUM, Strain/Indicator: TA1538, Metabolic Activation: RAT, LIVER, S-9, PHENOBARBITONE, Method: STANDARD PLATE) of the same molecule?
A: Its mutagenic call is “inactive; negative”.

Q: COc1ccc(CC2CO2)cc1 (stereo not given) was tested. Which mutagenic call [3] did it give?
A: The mutagenic call was “active; positive”.

Q: And the mutagenic call [2]?
A: The mutagenic call was “active; positive”.

Q: What about the mutagenic call (Test System: AMES SALMONELLA TYPHIMURIUM, Strain/Indicator: TA1535, Metabolic Activation: NONE, Method: PREINCUBATION) of the same molecule?
A: Its mutagenic call is “active; positive”.

Q: And the mutagenic call [4]?
A: Its mutagenic call is “active; positive”.

Q: For CCCCCCOC(=O)NO, which mutagenic call (Test System: E. COLI, Strain/Indicator: WP2 UVRA, Metabolic Activation: NONE, Method: FLUCTUATION TEST) is on record?
A: Its mutagenic call is “active; positive”.

Q: What does the source list for Nc1c[n+](N2CCOCC2)no1?
A: mutagenic call (Test System: E. COLI, Strain/Indicator: WP2 UVRA (PKM101), Metabolic Activation: NONE, Method: STANDARD PLATE): inactive; negative; mutagenic call (Test System: E. COLI, Strain/Indicator: WP2 UVRA/OXYR (PKM101), Metabolic Activation: NONE, Method: STANDARD PLATE): active; positive

Q: What does the source list for O=C(O)C(=O)C(=O)O?
A: mutagenic call (Test System: AMES SALMONELLA TYPHIMURIUM, Strain/Indicator: TA97, Metabolic Activation: NONE, Method: PREINCUBATION): inactive; negative; mutagenic call (Test System: AMES SALMONELLA TYPHIMURIUM, Strain/Indicator: TA97, Metabolic Activation: RAT, LIVER, S-9, PHENOBARBITAL AND 5,6-BENZOFLAVONE, Method: PREINCUBATION): inactive; negative; mutagenic call (Test System: AMES SALMONELLA TYPHIMURIUM, Strain/Indicator: TA98, Metabolic Activation: NONE, Method: PREINCUBATION): inactive; negative; mutagenic call (Test System: AMES SALMONELLA TYPHIMURIUM, Strain/Indicator: TA98, Metabolic Activation: RAT, LIVER, S-9, PHENOBARBITAL AND 5,6-BENZOFLAVONE, Method: PREINCUBATION): inactive; negative; mutagenic call [3]: inactive; negative; mutagenic call (Test System: AMES SALMONELLA TYPHIMURIUM, Strain/Indicator: TA100, Metabolic Activation: RAT, LIVER, S-9, PHENOBARBITAL AND 5,6-BENZOFLAVONE, Method: PREINCUBATION): inactive; negative; mutagenic call (Test System: AMES SALMONELLA TYPHIMURIUM, Strain/Indicator: TA102, Metabolic Activation: NONE, Method: PREINCUBATION): inactive; negative; mutagenic call (Test System: AMES SALMONELLA TYPHIMURIUM, Strain/Indicator: TA102, Metabolic Activation: RAT, LIVER, S-9, PHENOBARBITAL AND 5,6-BENZOFLAVONE, Method: PREINCUBATION): inactive; negative; mutagenic call (Test System: AMES SALMONELLA TYPHIMURIUM, Strain/Indicator: TA104, Metabolic Activation: NONE, Method: PREINCUBATION): inactive; negative; mutagenic call (Test System: AMES SALMONELLA TYPHIMURIUM, Strain/Indicator: TA104, Metabolic Activation: RAT, LIVER, S-9, PHENOBARBITAL AND 5,6-BENZOFLAVONE, Method: PREINCUBATION): inactive; negative

Q: With COP(=O)(OC)Oc1ccc([N+](=O)[O-])c(C)c1 as the molecule, how does the mutagenic call [1] read?
A: Its mutagenic call is “inactive; negative”.

Q: And the mutagenic call (Test System: AMES SALMONELLA TYPHIMURIUM, Strain/Indicator: TA98, Metabolic Activation: RAT, LIVER, S-9, Method: STANDARD PLATE)?
A: The mutagenic call was “active; positive”.

Q: What about the mutagenic call [2] of the same molecule?
A: The mutagenic call was “inactive; negative”.

Q: What about the mutagenic call (Test System: AMES SALMONELLA TYPHIMURIUM, Strain/Indicator: TA100, Metabolic Activation: RAT, LIVER, S-9, Method: STANDARD PLATE) of the same molecule?
A: Its mutagenic call is “inactive; negative”.

Q: Which mutagenic call [1] does the source give for CC(CF)NCC(O)COc1cccc2[nH]c3ccccc3c12 (stereo not given) here?
A: The mutagenic call was “inactive; negative”.

Q: What about the mutagenic call (Test System: AMES SALMONELLA TYPHIMURIUM, Strain/Indicator: TA98, Metabolic Activation: RAT LIVER S-9, AROCLOR 1254, 5%, Method: STANDARD PLATE) of the same molecule?
A: The mutagenic call was “inactive; negative”.

Q: What about the mutagenic call [2] of the same molecule?
A: The mutagenic call was “active; positive”.

Q: And the mutagenic call (Test System: AMES SALMONELLA TYPHIMURIUM, Strain/Indicator: TA100, Metabolic Activation: RAT LIVER S-9, AROCLOR 1254, 5%, Method: STANDARD PLATE)?
A: Its mutagenic call is “active; positive”.

Q: What about the mutagenic call [4] of the same molecule?
A: The mutagenic call was “active; positive”.

Q: And the mutagenic call (Test System: AMES SALMONELLA TYPHIMURIUM, Strain/Indicator: TA1535, Metabolic Activation: RAT LIVER S-9, AROCLOR 1254, 5%, Method: STANDARD PLATE)?
A: Its mutagenic call is “active; positive”.

Q: How did the mutagenic call (Test System: UDS HUMAN CELLS, Strain/Indicator: THY INCORP (NON-S-PHASE), Metabolic Activation: RAT, LIVER, S-9, PHENOBARBITAL, Method: LIQUID SCINTILLATION COUNTING) turn out when Nc1c(Cl)cc(-c2cc(Cl)c(N)c(Cl)c2)cc1Cl was run?
A: Its mutagenic call is “active; positive”.

— PubChem BioAssay AID1259407 (Chemical Carcinogenesis Research Information System (CCRIS), 2018)
